According to patent publication US20240150358A1, “PURINES AND METHODS OF THEIR USE” (Kineta, Inc., priority 2020, published 2024):

target: full-length human PIKFYVE (Homo sapiens (Human), UniProt Q9Y2I7, L932S/Q1183K/Q995L/S1033A/S696N/T998S); test: PIKfyve biochemical assay (ADP-Glo Kinase assay, Carna Biosciences); details: ADP-Glo, GST-PIKFYVE, 10 μM to 3 nM; read-out: hPIKfyve IC50
Protocol: (§1) PIKfyve Biochemical Assay. The biochemical PIKFyve inhibition assays were run by Carna Biosciences according to proprietary methodology based on the Promega ADP-Glo™ Kinase assay. […] GST-PIKFYVE was purified by using glutathione sepharose chromatography and used in an ADP-Glo™ Kinase assay (Promega). Reactions were set up by adding the test compound solution, substrate solution, ATP solution and kinase solution, each at 4× final concentrations. Reactions were prepared with assay buffer (50 mM MOPS, 1 mM DTT, pH7.2), mixed, and incubated in black 384 well polystyrene plates for 1 hour at room temperature. ADPGlo™ reagent was then added for 40 minutes, followed by kinase detection reagent for an additional 40 minutes. The kinase activity was evaluated by detecting relative light units on a luminescence plate reader. Samples were run in duplicate from 10 μM to 3 nM. […] IC50 values were calculated from concentration vs % inhibition curves by fitting to a four-parameter logistic curve.
as §1, with “The” for “PIKfyve Biochemical Assay. The”, “ADP-Glo™” for “ADPGlo™”, “uM” for “μM”, “curve. […]” for “curve.”

Chain of full-length human PIKFYVE (Q9Y2I7 whole entry S696N/L932S/Q995L/T998S/S1033A/Q1183K): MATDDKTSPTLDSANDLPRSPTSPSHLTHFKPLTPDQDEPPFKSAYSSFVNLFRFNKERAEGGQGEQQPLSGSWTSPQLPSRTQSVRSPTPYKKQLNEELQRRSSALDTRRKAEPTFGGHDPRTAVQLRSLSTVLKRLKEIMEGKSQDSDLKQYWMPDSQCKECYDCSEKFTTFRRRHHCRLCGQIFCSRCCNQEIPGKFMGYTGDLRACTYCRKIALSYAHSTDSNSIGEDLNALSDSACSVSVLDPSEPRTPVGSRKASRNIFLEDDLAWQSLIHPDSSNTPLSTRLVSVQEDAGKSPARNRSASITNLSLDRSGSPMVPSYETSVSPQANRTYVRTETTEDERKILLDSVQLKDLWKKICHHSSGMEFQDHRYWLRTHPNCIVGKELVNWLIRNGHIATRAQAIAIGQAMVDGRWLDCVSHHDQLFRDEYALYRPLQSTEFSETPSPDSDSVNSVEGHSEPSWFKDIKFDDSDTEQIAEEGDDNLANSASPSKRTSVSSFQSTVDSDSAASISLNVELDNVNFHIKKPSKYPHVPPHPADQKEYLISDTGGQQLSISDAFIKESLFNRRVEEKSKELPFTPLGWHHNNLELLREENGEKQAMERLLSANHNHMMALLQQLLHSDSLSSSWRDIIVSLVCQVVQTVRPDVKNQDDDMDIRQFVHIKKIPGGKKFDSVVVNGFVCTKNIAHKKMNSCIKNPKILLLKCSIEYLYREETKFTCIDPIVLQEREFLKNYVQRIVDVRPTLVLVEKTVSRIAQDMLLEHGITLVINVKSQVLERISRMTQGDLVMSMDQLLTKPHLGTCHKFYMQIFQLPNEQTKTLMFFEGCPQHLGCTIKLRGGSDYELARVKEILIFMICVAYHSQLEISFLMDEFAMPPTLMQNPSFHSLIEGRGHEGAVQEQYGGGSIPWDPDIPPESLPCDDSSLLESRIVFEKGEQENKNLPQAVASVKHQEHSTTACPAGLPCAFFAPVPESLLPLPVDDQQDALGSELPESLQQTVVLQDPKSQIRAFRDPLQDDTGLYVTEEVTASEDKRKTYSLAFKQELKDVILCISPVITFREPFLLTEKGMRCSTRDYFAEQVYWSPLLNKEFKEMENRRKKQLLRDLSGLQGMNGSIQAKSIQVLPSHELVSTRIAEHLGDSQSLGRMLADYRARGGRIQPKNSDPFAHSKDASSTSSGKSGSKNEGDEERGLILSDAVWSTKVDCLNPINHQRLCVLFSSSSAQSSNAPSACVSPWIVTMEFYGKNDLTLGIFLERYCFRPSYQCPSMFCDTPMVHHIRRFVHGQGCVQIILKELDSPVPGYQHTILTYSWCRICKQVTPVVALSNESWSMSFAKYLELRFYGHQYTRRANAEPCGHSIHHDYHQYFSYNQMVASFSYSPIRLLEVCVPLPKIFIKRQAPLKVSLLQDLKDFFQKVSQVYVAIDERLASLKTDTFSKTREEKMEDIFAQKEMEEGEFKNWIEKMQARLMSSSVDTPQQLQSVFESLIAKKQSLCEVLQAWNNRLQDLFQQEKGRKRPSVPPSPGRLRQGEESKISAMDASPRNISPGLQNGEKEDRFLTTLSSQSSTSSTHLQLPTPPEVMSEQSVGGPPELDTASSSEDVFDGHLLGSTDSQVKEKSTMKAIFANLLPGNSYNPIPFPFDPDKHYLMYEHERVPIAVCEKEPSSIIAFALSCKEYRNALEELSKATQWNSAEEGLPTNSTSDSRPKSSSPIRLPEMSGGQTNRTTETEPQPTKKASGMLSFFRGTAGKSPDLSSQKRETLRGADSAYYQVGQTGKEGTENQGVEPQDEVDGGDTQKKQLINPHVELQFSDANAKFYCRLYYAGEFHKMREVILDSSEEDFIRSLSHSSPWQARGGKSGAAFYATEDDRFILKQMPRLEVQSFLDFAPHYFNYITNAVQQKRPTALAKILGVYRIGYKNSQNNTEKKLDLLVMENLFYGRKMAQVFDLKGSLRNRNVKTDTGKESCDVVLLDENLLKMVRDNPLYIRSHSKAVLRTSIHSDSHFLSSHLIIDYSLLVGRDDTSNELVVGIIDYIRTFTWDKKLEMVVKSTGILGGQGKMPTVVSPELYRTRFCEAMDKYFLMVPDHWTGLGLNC

Compared with `Cn1c(-c2ccncc2)nc2nc(-c3ccnc(-c4ccccc4)n3)nc(N3CCOCC3)c21` [Compound 2, 7-methyl-6-(morpholin-4-yl)-2-(2-phenylpyrimidin-4-yl)-8-(pyridin-4-yl)-7H-purine], `Cn1c(-c2ccncc2)nc2c(N3CCOCC3)nc(-c3ccn(-c4ccccc4)n3)nc21` [Compound 46, 9-methyl-6-(morpholin-4-yl)-2-(1-phenyl-1H-pyrazol-3-yl)-8-(pyridin-4-yl)-9H-purine] is lower in IC50: 1000 to 10000 nM for the first, 10 to 100 nM for the second.

`Cn1c(-c2ccncc2)nc2c(N3CCOCC3)nc(-c3cccc(C4CCNCC4)n3)nc21` [Compound 3] and `Cn1c(-c2ccncc2)nc2c(N3CCOCC3)nc(-n3ccc(C4CCNCC4)n3)nc21` [Compound 21] fall in the same range of IC50: 10 to 100 nM for the first, 10 to 100 nM for the second.

`Cn1c(-c2ccncc2)nc2c(N3CCOCC3)nc(-c3cccc(C4CCN(C(=O)OC(C)(C)C)CC4)n3)nc21` [Compound 4] and `Cn1c(-c2ccncc2)nc2c(N3CCOCC3)nc(-c3ccn(C4CCCN(C(=O)OC(C)(C)C)C4)n3)nc21` (stereo not drawn) [Compound 43] fall in the same range of IC50: 100 to 1000 nM for the first, 100 to 1000 nM for the second.

`CCn1c(-c2ccncc2)nc2c(N3CCOCC3)nc(-n3ccc(-c4ccccc4)n3)nc21` [Compound 5] and `Cn1c(-c2ccncc2)nc2c(N3CCOCC3)nc(-n3ccc(-c4cccnc4)n3)nc21` [Compound 7, 9-methyl-6-(morpholin-4-yl)-2-[3-(pyridin-3-yl)-1H-pyrazol-1-yl]-8-(pyridin-4-yl)-9H-purine] fall in the same range of IC50: 10 to 100 nM for the first, 10 to 100 nM for the second.

First: Cn1c(-c2ccncc2)nc2c(N3CCOCC3)ncnc21 [Compound 8]
Second: Cn1c(-c2ccncc2)nc2c(N3CCOCC3)nc(-c3cc[nH]n3)nc21 [Compound 49]
The IC50 of the first is higher: 100 to 1000 nM for the first, 10 to 100 nM for the second.

`CN1CCC(c2nc3c(N4CCOCC4)nc(-n4ccc(-c5ccccc5)n4)nc3n2C)CC1` [Compound 9] and `CN1CC(c2nc3c(N4CCOCC4)nc(-n4ccc(-c5ccccc5)n4)nc3n2C)C1` [Compound 81, 4-(9-methyl-8-(1-methylazetidin-3-yl)-2-(3-phenyl-1H-pyrazol-1-yl)-9H-purin-6-yl)morpholine] fall in the same range of IC50: 100 to 1000 nM for the first, 100 to 1000 nM for the second.

Compared with `Cn1c(C2CCCNC2)nc2c(N3CCOCC3)nc(-n3ccc(-c4ccccc4)n3)nc21` (stereo not drawn) [Compound 10], `Cn1c(C2CNC2)nc2c(N3CCOCC3)nc(-n3ccc(-c4ccccc4)n3)nc21` [Compound 83, 4-(8-(azetidin-3-yl)-9-methyl-2-(3-phenyl-1H-pyrazol-1-yl)-9H-purin-6-yl)morpholine] is lower in IC50: 100 to 1000 nM for the first, 10 to 100 nM for the second.

`Cn1c(C2CCNCC2)nc2c(N3CCOCC3)nc(-n3ccc(-c4ccccc4)n3)nc21` [Compound 11] and `Cn1c(C2CCOCC2)nc2c(N3CCOCC3)nc(-n3ccc(-c4ccccc4)n3)nc21` [Compound 12] fall in the same range of IC50: 100 to 1000 nM for the first, 100 to 1000 nM for the second.

First: Cn1c(C2CN(C(=O)OC(C)(C)C)C2)nc2c(N3CCOCC3)nc(-n3ccc(-c4ccccc4)n3)nc21 [Compound 13, tert-butyl 3-(9-methyl-6-morpholino-2-(3-phenyl-1H-pyrazol-1-yl)-9H-purin-8-yl)azetidine-1-carboxylate]
Second: Cn1c(-c2ccncc2)nc2c(N3CCOCC3)nc(-n3ccc(C4CCN(C(=O)OC(C)(C)C)C4)n3)nc21 (stereo not drawn) [Compound 40]
The IC50 of the first is lower: 10 to 100 nM for the first, 100 to 1000 nM for the second.

First: Cn1c(C2=CCOCC2)nc2c(N3CCOCC3)nc(-n3ccc(-c4ccccc4)n3)nc21 [Compound 14]
Second: Cn1c(C2=CCOCC2)nc2c(N3CCOCC3)nc(-n3ccc(-c4cccc(C#N)c4)n3)nc21 [Compound 36, 3-{1-[8-(3,6-dihydro-2H-pyran-4-yl)-9-methyl-6-(morpholin-4-yl)-9H-purin-2-yl]-1H-pyrazol-3-yl}benzonitrile]
The IC50 of the first is lower: 10 to 100 nM for the first, 1000 to 10000 nM for the second. The first is the more potent here.

`CN1CCCC(c2ccn(-c3nc(N4CCOCC4)c4nc(C5CCOCC5)n(C)c4n3)n2)C1` (stereo not drawn) [Compound 15] and `Cn1c(C2CCOCC2)nc2c(N3CCOCC3)nc(-n3ccc(C4CCCNC4)n3)nc21` (stereo not drawn) [Compound 16] fall in the same range of IC50: 1000 to 10000 nM for the first, 1000 to 10000 nM for the second.

`Cn1c(-c2ccncc2)nc2c(N3CCOCC3)nc(-n3ccc(C4CCCNC4)n3)nc21` (stereo not drawn) [Compound 17] and `Cn1c(-c2ccncc2)nc2c(N3CCOCC3)nc(-n3ccc(C4CCNC4)n3)nc21` (stereo not drawn) [Compound 38] fall in the same range of IC50: 100 to 1000 nM for the first, 100 to 1000 nM for the second.

`CN1CCC(c2ccn(-c3nc(N4CCOCC4)c4nc(-c5ccncc5)n(C)c4n3)n2)CC1` [Compound 18] and `Cn1c(-c2ccncc2)nc2c(N3CCOCC3)nc(-n3ccc(C4CCOCC4)n3)nc21` [Compound 25] fall in the same range of IC50: 100 to 1000 nM for the first, 100 to 1000 nM for the second.

`Cn1c(C2CCOCC2)nc2c(N3CCOCC3)nc(-n3ccc(-c4cccnc4)n3)nc21` [Compound 19, 4-(9-methyl-2-(3-(pyridin-3-yl)-1H-pyrazol-1-yl)-8-(tetrahydro-2H-pyran-4-yl)-9H-purin-6-yl)morpholine] and `Cn1c(C2CCOCC2)nc2c(N3CCOCC3)nc(-n3ccc(-c4cncnc4)n3)nc21` [Compound 20] fall in the same range of IC50: 1000 to 10000 nM for the first, 1000 to 10000 nM for the second.

`c1cc(-c2nc3c(N4CCOCC4)nc(-n4ccc(C5CCCNC5)n4)nc3[nH]2)ccn1` (stereo not drawn) [Compound 22] and `Cn1c(-c2ccncc2)nc2c(N3CCOCC3)nc(-n3ccc(C4CC5(CNC5)C4)n3)nc21` [Compound 35] fall in the same range of IC50: 10 to 100 nM for the first, 10 to 100 nM for the second.

`CC(C)c1ccn(-c2nc(N3CCOCC3)c3nc(-c4ccncc4)n(C)c3n2)n1` [Compound 23] and `Cn1c(-c2ccncc2)nc2c(N3CCOCC3)nc(-n3ccc(CC4CNC4)n3)nc21` [Compound 80, 4-(2-(3-(azetidin-3-ylmethyl)-1H-pyrazol-1-yl)-9-methyl-8-(pyridin-4-yl)-9H-purin-6-yl)morpholine] fall in the same range of IC50: 100 to 1000 nM for the first, 100 to 1000 nM for the second.

First: Cc1nn(-c2nc(N3CCOCC3)c3nc(-c4ccncc4)n(C)c3n2)c(=O)n1-c1ccccc1 [Compound 24]
Second: Cn1c(-c2ccncc2)nc2c(N3CCOCC3)nc(-n3ccc(-c4ccncc4)n3)nc21 [Compound 27]
The IC50 of the first is higher: 100 to 1000 nM for the first, 10 to 100 nM for the second.

`Cn1c(-c2ccncc2)nc2c(N3CCOCC3)nc(-n3ccc(C4CCCN(C(=O)OC(C)(C)C)C4)n3)nc21` (stereo not drawn) [Compound 29] and `Cn1c(-c2ccncc2)nc2c(N3CCOCC3)nc(-n3ccc(C4CC5(C4)CN(C(=O)OC(C)(C)C)C5)n3)nc21` [Compound 34] fall in the same range of IC50: 100 to 1000 nM for the first, 100 to 1000 nM for the second.

`CN1CCCC(c2nc(-c3nc(N4CCOCC4)c4nc(-c5ccncc5)n(C)c4n3)no2)C1` (stereo not drawn) [Compound 30] and `Cn1c(-c2ccncc2)nc2c(N3CCOCC3)nc(-c3noc(C4CCCNC4)n3)nc21` (stereo not drawn) [Compound 31] fall in the same range of IC50: 100 to 1000 nM for the first, 100 to 1000 nM for the second.

`Cn1c(-c2ccncc2)nc2c(N3CCOCC3)nc(-c3noc(C4CCCN(C(=O)OC(C)(C)C)C4)n3)nc21` (stereo not drawn) [Compound 33, tert-butyl 3-{3-[9-methyl-6-(morpholin-4-yl)-8-(pyridin-4-yl)-9H-purin-2-yl]-1,2,4-oxadiazol-5-yl}piperidine-1-carboxylate] and `Cn1c(-c2ccncc2)nc2c(N3CCOCC3)nc(-c3ccnn3C3CCCN(C(=O)OC(C)(C)C)C3)nc21` (stereo not drawn) [Compound 42] fall in the same range of IC50: 100 to 1000 nM for the first, 100 to 1000 nM for the second.

First: Cn1c(C2CCOCC2)nc2c(N3CCOCC3)nc(-n3ccc(-c4cccc(C#N)c4)n3)nc21 [Compound 39]
Second: Cn1c(-c2ccncc2)nc2c(N3CCOCC3)nc(-n3ccc(-c4cncnc4)n3)nc21 [Compound 82, 4-(9-methyl-8-(pyridin-4-yl)-2-(3-(pyrimidin-5-yl)-1H-pyrazol-1-yl)-9H-purin-6-yl)morpholine]
The IC50 of the first is higher: 1000 to 10000 nM for the first, 10 to 100 nM for the second. The second is the more potent here.

`Cn1c(-c2ccncc2)nc2c(N3CCOCC3)nc(-c3ccn(C4CCCNC4)n3)nc21` (stereo not drawn) [Compound 41] and `Cn1ccc(-c2nc(N3CCOCC3)c3nc(-c4ccncc4)n(C)c3n2)n1` [Compound 48] fall in the same range of IC50: 100 to 1000 nM for the first, 100 to 1000 nM for the second.

Compared with `Cn1c(-c2ccncc2)nc2c(N3CCOCC3)nc(-c3cccc4c3OCCO4)nc21` [Compound 44], `Cn1c(-c2ccncc2)nc2c(N3CCOCC3)nc(-c3ccc4c(c3)OCCO4)nc21` [Compound 45] is lower in IC50: 100 to 1000 nM for the first, 10 to 100 nM for the second.

Compared with `Cn1c(-c2ccncc2)nc2c(N3CCOCC3)nc(-n3nc(C4CCCCC4)[nH]c3=O)nc21` [Compound 50, 3-cyclohexyl-1-[9-methyl-6-(morpholin-4-yl)-8-(pyridin-4-yl)-9H-purin-2-yl]-4,5-dihydro-1H-1,2,4-triazol-5-one], `Cn1c(-c2ccncc2)nc2c(N3CCOCC3)nc(-n3ccc(CC4CN(C(=O)OC(C)(C)C)C4)n3)nc21` [Compound 84, tert-butyl 3-((1-(9-methyl-6-morpholino-8-(pyridin-4-yl)-9H-purin-2-yl)-1H-pyrazol-3-yl)methyl)azetidine-1-carboxylate] is lower in IC50: 100 to 1000 nM for the first, 10 to 100 nM for the second. The second is the more potent here.

same assay, conditions: values plotted in FIG. 7; read-out: PIKFYVE Biochemistry (IC50)

`c1ccc(-c2nc(-c3cc(N4CCOCC4)nc(OCc4ccncc4)n3)no2)cc1` and `O=c1ccn(Cc2nc(N3CCOCC3)cc(-n3nccc3-c3ccccc3)n2)cc1` cannot be ordered by IC50: over 10000 nM for the first, over 10000 nM for the second.

Work on `O=c1c(CCOc2cccnc2)cc2ncncc2n1-c1ccccc1` yielded an IC50 of over 10000 nM.
